Consider two compounds from US10745416B2, “Macrocyclic compounds for treating disease” (Turning Point Therapeutics, Inc., priority 2017, dated 2020).

“Also recorded” adds a separate entry of the source. Bounds are passed on as bounds.

One data set concerns the target T1, RET (L790F) (Homo sapiens, UniProt P07949, L790F).
T1 construct: purchased Reaction Biology Corporation (assay run at the CRO)
The experiment in a line: Biochemical kinase assay (Reaction Biology, 33P ATP). Conditions: 10 μM ATP. How it is done: (§1) The biochemical kinase assay was performed at Reaction Biology Corporation (www.reactionbiology.com, Malvern, Pa.) following the procedures described in the reference (Anastassiadis T, et al Nat Biotechnol. 2011, 29, 1039). Specific kinase/substrate pairs along with required cofactors were prepared in reaction buffer; 20 mM Hepes pH 7.5, 10 mM MgCl2, 1 mM EGTA, 0.02% Brij35, 0.02 mg/ml BSA, 0.1 mM Na3VO4, 2 mM DTIT, 1% DMSO. Compounds were delivered into the reaction, followed ˜20 minutes later by addition of a mixture of ATP (Sigma, St. Louis Mo.) and ^33P ATP (Perkin Elmer, Waltham Mass.) to a final concentration of 10 μM. Reactions were carried out at room temperature for 120 min, followed by spotting of the reactions onto P81 ion exchange filter paper (Whatman Inc., Piscataway, N.J.). Unbound phosphate was removed by extensive washing of filters in 0.75% phosphoric acid. […] IC50 values and curve fits were obtained using Prism (GraphPad Software).

The target of a further data set is T2, RET (Y806H) (Homo sapiens, UniProt P07949, Y806H).
T2 construct: purchased Reaction Biology Corporation (assay run at the CRO)
The description is as above. Conditions: 10 μM ATP. As to the method:
as §1

For the next data set, the system named is KG-1. The experiment in a line: Cell proliferation assay (CellTiter-Glo, 72 hours). In kind it is cell-based, human. Conditions: Homo sapiens, KG-1, anti-cell proliferation. The essentials:
(§2)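 Cells used were KG-1 (AML), TT medullary thyroid carcinoma ([…]) and KM12 colon (TPM3-TRKA). Viability was read by CellTiter-Glo ATP luminescence, and IC50 derived by curve fitting.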

For another data set, the system named is KM12 cell (TPM3-TRKA). The experiment in a line: Cell proliferation assay (CellTiter-Glo, 72 hours). In kind it is cell-based, human. The settings on record: Homo sapiens, KM12, anti-cell proliferation. An outline of the steps: as §2
(In general: Cellular ATP, detected with luciferase, serves as a proxy for viable cell number.)

The next data set has as its system TT cell (RET C634W). The experiment in a line: Cell proliferation assay (CellTiter-Glo, 72 hours). In kind it is cell-based. Conditions: Homo sapiens, anti-cell proliferation. How it is done:
Human medulla thyroid carcinoma cell line TT (containing RET […] mutation) and acute myelogenous cell line KG-1 were purchased from ATCC. Human colon cancer cell line KMI2 (containing TPM3-TRKA) was obtained from NCI.
Two thousand cells per well were seeded in 384 well white plate for 24 hrs, and then treated with compounds for 72 hours (37° C., 5% CO2). Cell proliferation was measured using CellTiter-Glo luciferase-based ATP detection assay (Promega) following the manufactures's protocol. IC50 determinations were performed using GraphPad Prism software (GraphPad, Inc., San Diego, Calif.).

The target of another data set is T3, BaF3 KIF5B-RET (Homo sapiens, UniProt P07949).
T3 construct: fused on or other part: P33176 (Kinesin-1 heavy chain)
Kind of data set: Cell proliferation assay (CellTiter-Glo, 72 hours). The settings on record: anti-cell proliferation, read-out: BaF3 KIF5B-RET IC50. In kind it is cell-based. The essentials: (§3)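 Ba/F3 cells were lentivirally transduced with wild-type or mutant KIF5B-RET, puromycin-selected and grown without IL-3. CellTiter-Glo ATP luminescence read viability, and IC50 values came from curve fitting.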

In the next data set the target is T4, BaF3 KIF5B-RET_G810R (Homo sapiens, UniProt P07949, G810R, cells depend on it).
T4 construct: fused on or other part: P33176 (Kinesin-1 heavy chain)
Kind of data set: Cell proliferation assay (CellTiter-Glo, 72 hours). It is filed as cell-based. Conditions: anti-cell proliferation, read-out: BaF3 KIF5B-RET_G810R IC50.

For the next data set, the target named is T5, BaF3 KIF5B-RET_V804M (Homo sapiens, UniProt P07949, V804M, cells depend on it).
T5 construct: fused on or other part: P33176 (Kinesin-1 heavy chain)
Kind of data set: Cell proliferation assay (CellTiter-Glo, 72 hours). It is filed as cell-based. Conditions: anti-cell proliferation, read-out: BaF3 KIF5B-RET_V804M IC50. The essentials:
as §3

The subject of another data set is TT tumors. Kind of data set: TT thyroid medullary carcinoma subcutaneous xenograft model. It is filed as in vivo, SCID/Beige mice. As to the method: BaF3 KIF5B-RET WT and BaF3 KIF5B-RET G810R cells were cultured using standard techniques in RPMI-1640 medium (Corning, Inc) with 10% fetal bovine serum (Thermo Fisher Scientific, Inc) at 37° C. in a humidified atmosphere with 5% CO2. TI cells were cultured using standard techniques in F-12K medium (Corning, Inc) with 10% fetal bovine serum (Thermo Fisher Scientific, Inc) at 37° C. in a humidified atmosphere with 5% CO2. For implantation, cells were harvested and pelleted by centrifugation at 250 g for 2 minutes. Cells were washed once and resuspended in serum-free medium supplemented with 50% matrigel (v/v).
For cell derived xenograft models, female SCID/Beige mice (5-8 weeks of age) were obtained from Charles River Laboratory and were housed in Innovive IVC disposable cages on HEPA filtered ventilated racks with ad libitum access to rodent chow and water. Five million cells in 100 μL serum-free medium supplemented with 50% matrigel (Corning, Inc) were implanted subcutaneously in the right flank region of the mouse. Tumor size and body weight were measured on designated days. Tumor size was measured with an electronic caliper and tumor volume was calculated as the product of length*width^2*0.5. Mice were randomized by tumor size into treatment groups when tumor volume reached about 200 mm^3 and Compound 5 was administered orally (BID) at determined doses.
The C634W mutation of RET in T cells underlies the molecular mechanism for tumor growth. SCID/Beige mice bearing TT tumors (at the average tumor size of around 200 mm^3) were dosed with Compound 5 orally BID for 27 days (FIG. 4A). The control group of mice were given vehicle only. Tumor volume (TMV) was measured by caliper on the indicated days and is shown at mean±sem in FIG. 4A. […] Tumor growth inhibition (TGI) was calculated as 100%*{1−[(TMVTreated Last Day of Treatment−TMV^Treated First Day of Treatment)/(TMVControl on Last Day of Treatment−TMVControl on First Day of Treatment)]} when TMVTreated Last Day of Treatment≥TMVTreated First Day of Treatment. In the case of TMVTreated Last Day of Treatment<TMVTreated First Day of Treatment, tumor regression (REG) was calculated as 100%*(1−TMVTreated Last Day of Treatment/TMVTreated First Day of Treatment). […] Tumor size was reduced in 10 out 10 mice treated with Compound 5 at both dose levels.

A word on the IC50: it is the concentration needed to halve the response being measured. High values mean a need for much substance, low ones inhibition by little substance.

T1 sequence (P07949 29-1114 L790F): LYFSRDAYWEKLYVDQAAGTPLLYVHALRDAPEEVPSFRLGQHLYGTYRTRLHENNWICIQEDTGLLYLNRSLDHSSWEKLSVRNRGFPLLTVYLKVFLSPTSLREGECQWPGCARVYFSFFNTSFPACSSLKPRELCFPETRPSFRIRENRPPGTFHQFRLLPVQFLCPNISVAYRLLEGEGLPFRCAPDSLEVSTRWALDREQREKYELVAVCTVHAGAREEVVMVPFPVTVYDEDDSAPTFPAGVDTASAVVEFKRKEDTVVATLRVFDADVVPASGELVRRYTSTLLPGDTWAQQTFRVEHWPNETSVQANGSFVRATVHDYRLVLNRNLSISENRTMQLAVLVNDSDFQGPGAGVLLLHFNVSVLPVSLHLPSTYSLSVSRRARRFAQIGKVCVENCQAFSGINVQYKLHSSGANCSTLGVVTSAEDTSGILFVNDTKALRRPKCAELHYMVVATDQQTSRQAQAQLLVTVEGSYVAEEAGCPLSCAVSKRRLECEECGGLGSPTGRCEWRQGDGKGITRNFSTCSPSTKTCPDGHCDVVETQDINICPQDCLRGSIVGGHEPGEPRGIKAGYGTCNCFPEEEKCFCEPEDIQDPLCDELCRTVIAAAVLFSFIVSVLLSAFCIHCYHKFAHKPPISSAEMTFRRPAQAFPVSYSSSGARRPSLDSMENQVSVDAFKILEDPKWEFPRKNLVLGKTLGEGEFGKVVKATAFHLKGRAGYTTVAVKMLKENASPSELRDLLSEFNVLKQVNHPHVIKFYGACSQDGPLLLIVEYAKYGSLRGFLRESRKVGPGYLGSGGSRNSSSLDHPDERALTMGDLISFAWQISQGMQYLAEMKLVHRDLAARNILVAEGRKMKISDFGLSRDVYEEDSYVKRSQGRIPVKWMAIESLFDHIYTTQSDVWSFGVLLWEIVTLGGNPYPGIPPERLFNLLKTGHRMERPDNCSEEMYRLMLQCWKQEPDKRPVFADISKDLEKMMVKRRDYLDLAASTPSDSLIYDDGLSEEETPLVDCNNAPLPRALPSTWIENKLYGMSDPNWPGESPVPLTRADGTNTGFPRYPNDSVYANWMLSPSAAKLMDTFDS
T3 sequence (P07949 whole entry, change not shown, the tested form may be a part): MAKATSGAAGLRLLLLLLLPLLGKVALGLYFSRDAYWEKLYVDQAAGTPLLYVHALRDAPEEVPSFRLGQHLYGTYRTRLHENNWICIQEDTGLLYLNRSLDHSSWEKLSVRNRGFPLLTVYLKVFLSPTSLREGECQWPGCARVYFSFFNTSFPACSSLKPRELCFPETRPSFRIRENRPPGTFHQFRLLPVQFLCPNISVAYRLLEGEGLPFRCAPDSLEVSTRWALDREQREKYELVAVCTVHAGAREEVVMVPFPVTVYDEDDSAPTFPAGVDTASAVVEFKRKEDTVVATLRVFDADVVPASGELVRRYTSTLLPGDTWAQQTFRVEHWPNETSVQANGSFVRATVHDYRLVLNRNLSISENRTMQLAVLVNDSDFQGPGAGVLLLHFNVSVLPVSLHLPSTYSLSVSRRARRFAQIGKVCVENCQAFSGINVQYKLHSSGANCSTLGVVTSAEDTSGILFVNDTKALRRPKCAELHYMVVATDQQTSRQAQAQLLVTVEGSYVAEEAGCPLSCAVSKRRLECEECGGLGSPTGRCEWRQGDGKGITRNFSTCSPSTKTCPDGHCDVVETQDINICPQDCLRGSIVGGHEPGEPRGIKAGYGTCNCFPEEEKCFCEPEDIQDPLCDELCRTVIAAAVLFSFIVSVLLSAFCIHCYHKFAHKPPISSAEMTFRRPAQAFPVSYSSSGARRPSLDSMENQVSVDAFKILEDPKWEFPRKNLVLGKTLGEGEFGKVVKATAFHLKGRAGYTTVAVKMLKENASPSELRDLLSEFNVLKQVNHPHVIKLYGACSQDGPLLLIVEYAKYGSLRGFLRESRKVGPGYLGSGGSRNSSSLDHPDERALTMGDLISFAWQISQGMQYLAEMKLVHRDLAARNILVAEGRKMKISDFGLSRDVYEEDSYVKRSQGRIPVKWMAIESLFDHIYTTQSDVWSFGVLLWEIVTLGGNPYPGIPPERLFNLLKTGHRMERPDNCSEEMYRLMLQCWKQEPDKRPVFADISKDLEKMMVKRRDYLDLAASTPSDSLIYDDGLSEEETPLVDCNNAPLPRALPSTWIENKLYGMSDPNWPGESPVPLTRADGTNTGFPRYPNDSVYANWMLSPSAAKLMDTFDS
T2 sequence (P07949 29-1114 Y806H): as the sequence (P07949 29-1114 L790F) above, with F762L, Y778H counted along it
T4 sequence (P07949 whole entry G810R, the tested form may be a part): as the sequence (P07949 whole entry, change not shown, the tested form may be a part) above, with G810R counted along it
T5 sequence (P07949 whole entry V804M, the tested form may be a part): as the sequence (P07949 whole entry, change not shown, the tested form may be a part) above, with V804M counted along it

In the case of `C[C@H]1CNC(=O)c2cnn3cc4c(nc23)N(Cc2cc(F)ccc2O1)[C@@H]1CCC[C@@H]1O4` [Compound 1, (3aR,11S,20aS)-7-fluoro-11-methyl-2,3,3a,12,13,20a-hexahydro-1H,5H-17-19-(metheno)cyclopenta[5,6][1,4] oxazino[3,4-i]pyrazolo[4,3-f][1,4,8,10]benzoxatriacyclotridecin-14(11H)-one], the IC50 was 0.12 nM against RET (L790F); 0.385 nM at RET (Y806H); 131 nM with KG-1; 3 nM in the data set with KM12 cell (TPM3-TRKA); less than 0.5 nM in the data set with TT cell (RET C634W). For the same compound, the GI50 was found to be 0.25 nM at BaF3 KIF5B-RET, 30 nM on BaF3 KIF5B-RET_G810R and 1000 nM on BaF3 KIF5B-RET_V804M.

Turning to `C[C@H]1CNC(=O)c2cnn3cc4c(nc23)N(Cc2cc(F)cnc2O1)[C@@H]1CCC[C@@H]1O4` [Compound 5, (3aR,11S,20aS)-7-fluoro-11-methyl-2,3,3a,12,13,20a-hexahydro-1H,5H-17-19-(metheno)cyclopenta[5,6][1,4] oxazino[3,4-i]pyrazolo[4,3-f]pyrido[3,2-l][1,4,8,10]oxatriazacyclotridecin-14(11H)-one], the IC50 worked out at 1.31 nM against RET (L790F); 0.261 nM at RET (Y806H); 26.8 nM in the data set on KG-1; 6.9 nM in the data set on KM12 cell (TPM3-TRKA); 0.9 nM with TT cell (RET C634W). For the same compound, the GI50 on BaF3 KIF5B-RET stood at 2.4 nM; at BaF3 KIF5B-RET_G810R it was 22 nM; on BaF3 KIF5B-RET_V804M, 598 nM. For the same compound, in the data set with TT tumors (2 mg/kg BID and 5 mg/kg BID, 27 days), the “body weight and overt abnormality” value is recorded as “No body weight loss or overt abnormality”. Moreover, the “mean tumor volume (TMV) compared to control group” value with TT tumors (2 mg/kg BID and 5 mg/kg BID, 27 days, p<0.0001) was “decreased tumor size; also recorded: significantly lower”. Further, the entries for the “tumor regression (REG)” value in the data set on TT tumors (2 mg/kg BID orally for 27 days) and in the data set with TT tumors (5 mg/kg BID orally for 27 days) were 27% and 35%, respectively.
